Assay results taken from ChEMBL document CHEMBL1201862, “PubChem BioAssay data set” (2004).
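48-hour exposure; five concentrations; linearly interpolated endpoints. GI50 is the concentration that inhibits growth by half.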 The source made the active and inactive calls. Cut-off read from the data, not from the text of the source: active = GI50 up to about 1.1 µM and inactive = higher.

Assays:
Assay in all cases: NCI tumour cell line growth inhibition, 48 h
TK-10 = system: TK-10
UACC-62 = system: UACC-62
ACHN = system: ACHN
SF-539 = system: SF-539
M14 = system: M14
KM12 = system: KM12
HOP-92 = system: HOP-92
HCC 2998 = system: HCC 2998
SW-620 = system: SW-620
LOX IMVI = system: LOX IMVI
A498 = system: A498
OVCAR-5 = system: OVCAR-5
A549 = system: A549
MDA-MB-231 = system: MDA-MB-231
U-251 = system: U-251
MCF7 = system: MCF7
HT-29 = system: HT-29
SF-268 = system: SF-268
NCI-H460 = system: NCI-H460

Measured: GI50

CC(=O)O[C@@H]1C[C@@]23C[C@@]24CC[C@H](OC2OCC(O)C(O)C2O)C(C)(C)[C@@H]4CC=C3[C@]2(C)C[C@@H]3OC4(C[C@@H](C)[C@@H]3[C@@]12C)OC(O)[C@@]1(C)O[C@@H]41 (stereo not given in full)
inactive: TK-10 36 µM | UACC-62 21.7 µM | ACHN 43.5 µM | SF-539 20.8 µM | M14 47.2 µM | KM12 33.7 µM | HOP-92 54.3 µM | HCC 2998 20.6 µM | SW-620 36.5 µM | LOX IMVI 23.4 µM | A498 32.1 µM | OVCAR-5 47.5 µM | A549 48.9 µM | MDA-MB-231 21.1 µM | U-251 30.7 µM | MCF7 30.8 µM | HT-29 33.2 µM | SF-268 58.7 µM | NCI-H460 25.3 µM

O=C1C2=Cc3ccccc3OC2(O)Oc2cc3ccccc3cc21 (stereo not given)
inactive: TK-10 > 100 µM | UACC-62 > 100 µM | ACHN 87.9 µM | SF-539 20 µM | M14 > 100 µM | KM12 41.4 µM | HOP-92 74.3 µM | HCC 2998 28.1 µM | SW-620 > 100 µM | LOX IMVI > 100 µM | A498 > 100 µM | OVCAR-5 > 100 µM | A549 > 100 µM | MDA-MB-231 > 100 µM | U-251 50.9 µM | MCF7 > 100 µM | HT-29 > 100 µM | SF-268 36.1 µM | NCI-H460 > 100 µM

C=CCOC(=O)[C@@H]1C[C@@H](OC(C)(C)C)CN1C(=O)[C@@H]1[C@H]2OC(C)(C)O[C@H]2CN1C(=O)OCC1c2ccccc2-c2ccccc21
inactive: TK-10 18.4 µM | UACC-62 17.7 µM | ACHN 15.9 µM | SF-539 14.8 µM | M14 19.7 µM | KM12 2.86 µM | HOP-92 18.1 µM | HCC 2998 17.1 µM | SW-620 20.9 µM | LOX IMVI 2.3 µM | A498 15.7 µM | OVCAR-5 16.9 µM | A549 15.3 µM | MDA-MB-231 17.9 µM | U-251 12.6 µM | MCF7 48.4 µM | HT-29 17.2 µM | SF-268 20.8 µM | NCI-H460 10.5 µM

O=C1NC(NCc2ccc(F)cc2)=N/C1=C\c1ccccc1Cl
inactive: TK-10 21.5 µM | UACC-62 15.7 µM | ACHN 20.7 µM | SF-539 32.1 µM | M14 15.6 µM | KM12 18.1 µM | HOP-92 6.97 µM | HCC 2998 26.3 µM | SW-620 13.5 µM | LOX IMVI 14.7 µM | A498 16.8 µM | OVCAR-5 16.8 µM | A549 17.2 µM | MDA-MB-231 17.8 µM | U-251 14.7 µM | MCF7 19.6 µM | HT-29 15 µM | SF-268 24.2 µM | NCI-H460 25 µM

CCOc1ccccc1/N=C\c1c2ccccc2cc2ccccc12
inactive: TK-10 25 µM | UACC-62 38.5 µM | ACHN 29 µM | SF-539 23.8 µM | M14 20.3 µM | KM12 15.1 µM | HOP-92 21 µM | HCC 2998 18.5 µM | SW-620 24.5 µM | LOX IMVI 19.1 µM | A498 27 µM | OVCAR-5 25.8 µM | A549 26.4 µM | MDA-MB-231 27.2 µM | U-251 20.4 µM | MCF7 29.4 µM | HT-29 21.6 µM | SF-268 21.2 µM | NCI-H460 29.9 µM

OC(C1CCCC1=N/N=C1/CCCC1C(O)(C(F)(F)Cl)C(F)(F)Cl)(C(F)(F)Cl)C(F)(F)Cl (stereo not given)
inactive: TK-10 > 10 µM | UACC-62 > 10 µM | ACHN > 10 µM | SF-539 > 10 µM | M14 > 10 µM | KM12 > 10 µM | HOP-92 > 10 µM | HCC 2998 > 10 µM | SW-620 > 10 µM | LOX IMVI > 10 µM | A498 > 10 µM | OVCAR-5 > 10 µM | A549 > 10 µM | MDA-MB-231 > 10 µM | U-251 > 10 µM | MCF7 > 10 µM | HT-29 > 10 µM | SF-268 > 10 µM | NCI-H460 > 10 µM

O=C1OC(OC/C(Br)=C(/Br)COC2OC(=O)C(Cl)=C2Cl)C(Cl)=C1Cl (stereo not given)
inactive: TK-10 13.5 µM | UACC-62 14 µM | ACHN 10.4 µM | SF-539 21.8 µM | M14 6.79 µM | KM12 8.75 µM | HOP-92 9.4 µM | HCC 2998 16.7 µM | SW-620 2.69 µM | LOX IMVI 2.69 µM | A498 21.9 µM | OVCAR-5 14.1 µM | A549 22.1 µM | MDA-MB-231 7.69 µM | U-251 7.6 µM | MCF7 12.9 µM | HT-29 4.93 µM | SF-268 9.82 µM | NCI-H460 19.6 µM

COC(=O)[C@]1(c2cc3ccccc3n2S(=O)(=O)c2ccccc2)CC2CN(C(C)=O)C1CC2=O (stereo not given in full)
inactive: TK-10 7.73 µM | UACC-62 1.67 µM | ACHN 1.91 µM | SF-539 2.91 µM | M14 1.96 µM | KM12 2.69 µM | HOP-92 5.52 µM | HCC 2998 3.23 µM | SW-620 1.94 µM | LOX IMVI 1.9 µM | A498 9.64 µM | OVCAR-5 3.3 µM | A549 3.05 µM | MDA-MB-231 2.58 µM | U-251 1.6 µM | MCF7 1.69 µM | HT-29 1.96 µM | SF-268 2.34 µM | NCI-H460 3.14 µM

C=C1C(=O)OC2C1CC(O)/C(C)=C\CCC1(C)OC21 (stereo not given)
inactive: TK-10 39.3 µM | UACC-62 21.2 µM | ACHN 39.5 µM | SF-539 34.2 µM | M14 23.1 µM | KM12 32.9 µM | HOP-92 34.6 µM | HCC 2998 35.1 µM | SW-620 38.8 µM | LOX IMVI 27 µM | A498 43 µM | OVCAR-5 23.8 µM | A549 35.5 µM | MDA-MB-231 15.5 µM | U-251 20.3 µM | MCF7 28.2 µM | HT-29 27.5 µM | SF-268 25.1 µM | NCI-H460 31.8 µM

Oc1[nH]c(NCc2ccc(Cl)cc2)nc2ncnc1-2
inactive: TK-10 > 100 µM | UACC-62 > 100 µM | ACHN > 100 µM | SF-539 > 100 µM | M14 > 100 µM | KM12 > 100 µM | HOP-92 > 100 µM | HCC 2998 > 100 µM | SW-620 > 100 µM | LOX IMVI > 100 µM | A498 > 100 µM | OVCAR-5 > 100 µM | A549 > 100 µM | MDA-MB-231 > 100 µM | U-251 > 100 µM | MCF7 87.1 µM | HT-29 > 100 µM | SF-268 > 100 µM | NCI-H460 > 100 µM
